Reference: patent US5177078A, “Piperazine derivatives” (John Wyeth & Brother Limited, priority 1990, dated 1993)

Tests used:
[1] = biological target: T1, 5-HT1A receptor (Rattus norvegicus, UniProt P19327); assay: antagonism of 8-OH DPAT syndrome in the rat (5-HT1A receptor antagonism activity); type: in vivo
T1 construct: syndrome in the rat; from tissue; host or cells: living rat (endogenous receptor of the central nervous system)
T1 sequence (P19327 1-422): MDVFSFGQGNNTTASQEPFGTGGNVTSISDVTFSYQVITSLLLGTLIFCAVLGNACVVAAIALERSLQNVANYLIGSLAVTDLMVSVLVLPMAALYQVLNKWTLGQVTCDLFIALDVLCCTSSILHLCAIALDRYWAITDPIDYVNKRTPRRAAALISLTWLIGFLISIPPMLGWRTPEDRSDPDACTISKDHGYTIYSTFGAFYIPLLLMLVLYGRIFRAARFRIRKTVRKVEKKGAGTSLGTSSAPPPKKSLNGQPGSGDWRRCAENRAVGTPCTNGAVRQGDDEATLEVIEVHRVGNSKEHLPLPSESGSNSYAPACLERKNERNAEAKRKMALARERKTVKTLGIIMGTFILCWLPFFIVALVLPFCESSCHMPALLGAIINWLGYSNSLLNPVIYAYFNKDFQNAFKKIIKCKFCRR
Method: The compounds are tested for 5-HT1A receptor antagonism activity in a test involving the antagonism of 8-hydroxy-2-(di-n-propylamino)-tetralin (8-OH DPAT) syndrome in the rat. (R,S)-1-(2-Methoxyphenyl)-4-[2-(IH-imidazol-1-yl) -2-(phenyl)ethylpiperazine had MED of 1 mg/kg subcut and 10 mg/kg p.o when tested in this procedure.

[2] = biological target: T1, 5-HT1A receptor; assay: 5-HT1A receptor binding activity in rat hippocampal membrane homogenate; conditions: method of Alexander and Wood
Method: The compounds of the invention are tested for 5-HT1A receptor binding activity in rat hippocampal membrane homogenate by the method of B S Alexander and M D Wood, J Pharm Pharmacol, 1988, 40, 888-891.

- MED ([1]; p.o): 10 mg/kg
- MED ([1]; subcut): 1 mg/kg
- IC50 [2]: 15.8 nM
Structure (SMILES): COc1ccccc1N1CCN(CC(c2ccccc2)n2ccnc2)CC1 (stereo not drawn) [Example 1, 1-(2-Methoxyphenyl)-4-[2-(1H-imidazol-1-yl)-2-(phenyl)ethyl]piperazine]
